In the supplement of paper PMC12592484:

Assays:
Experiment in all cases: drug sensitivity score (DSS2, normalised partial AUC of dose-response, 72 h CellTiter-Glo viability) (DSS (dimensionless)); higher = more sensitive (stronger growth inhibition / cytotoxicity); extreme values may be limits of the assay
[1] = tested on: CAF#6 (primary prostate cancer-associated fibroblasts of iCAF-like type)
How it was run: (§1)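 Low-passage primary prostate cancer-associated fibroblasts, PF179T, WPMY-1, LNCaP and 22Rv1 cells were seeded into 384-well plates carrying pre-dispensed compounds at five doses covering a 10,000-fold range. After 72 h, viability was read by CellTiter-Glo 2.0 luminescence. Responses were scaled to vehicle and positive-control wells. The drug sensitivity score (DSS2) is a partial area under the fitted logistic dose–response curve divided by the log of its upper asymptote, computed in BREEZE; higher means more sensitive.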

[2] = tested on: CAF#3 (primary prostate cancer-associated fibroblasts of myCAF-like type)
How it was run: as §1

[3] = tested on: CAF#4 (primary prostate cancer-associated fibroblasts of iCAF-like type)
How it was run: as §1

[4] = tested on: LNCAP
How it was run: as §1

[5] = tested on: PF179T
How it was run: as §1

[6] = tested on: WPMY-1
How it was run: as §1

[7] = tested on: CAF#1 (primary prostate cancer-associated fibroblasts of myCAF-like type)
How it was run: as §1

[8] = tested on: CAF#2 (primary prostate cancer-associated fibroblasts of iCAF-like type)
How it was run: as §1

[9] = tested on: CAF#7 (primary prostate cancer-associated fibroblasts of myCAF-like type)
How it was run: as §1

[10] = tested on: 22Rv1
How it was run: as §1

[11] = tested on: CAF#5 (primary prostate cancer-associated fibroblasts of myCAF-like type)
How it was run: as §1

| SMILES | drug sensitivity score [1] | drug sensitivity score [2] | drug sensitivity score [3] | drug sensitivity score [4] | drug sensitivity score [5] | drug sensitivity score [6] | drug sensitivity score [7] | drug sensitivity score [8] | drug sensitivity score [9] | drug sensitivity score [10] | drug sensitivity score [11] |
| --- | --- | --- | --- | --- | --- | --- | --- | --- | --- | --- | --- |
| Nc1nc(NC2CC2)cc(-c2cccc(Cl)c2Cl)n1 [TH588] (tested concentration range 2.5-25000 nM) | 1.9 | 3 | 2.7 | 6.5 | 2.8 | 7.9 | 2 | 2.7 | 0.5 | 4.2 | 1.7 |
| Clc1ccccc1C(c1ccccc1)(c1ccccc1)n1cccn1 [TRAM-34] (tested concentration range 0.1-1000 nM) | 0 | 0 | 0 | 0 | 0 | 0 | 0.8 | 0.1 | 0 | 0 | 0 |
| CC(=O)Nc1ccc(C(=O)Nc2ccccc2N)cc1 [Tacedinaline] (tested concentration range 0.1-1000 nM) | 0 | 3.3 | 0.5 | 0.6 | 0.9 | 0 | 1.8 | 2.3 | 0.6 | 0.1 | 2.5 |
| C=CC[C@@H]1/C=C(\C)C[C@H](C)C[C@H](OC)[C@H]2O[C@@](O)(C(=O)C(=O)N3CCCC[C@H]3C(=O)O[C@H](/C(C)=C/[C@@H]3CC[C@@H](O)[C@H](OC)C3)[C@H](C)[C@@H](O)CC1=O)[C@H](C)C[C@@H]2OC [Tacrolimus] (tested concentration range 1-10000 nM) | 2.3 | 0.2 | 0 | 6.8 | 0 | 1 | 0.9 | 2.7 | 2 | 2.3 | 0.9 |
| Cn1ncnc1[C@H]1c2n[nH]c(=O)c3cc(F)cc(c23)N[C@@H]1c1ccc(F)cc1 [Talazoparib] (tested concentration range 0.1-1000 nM) | 1.6 | 2.1 | 3.4 | 15.3 | 11.2 | 4 | 4.9 | 8 | 2.9 | 11.5 | 6.2 |
| C[C@@H]1CN(Cc2ccc(F)cc2)[C@@H](C)CN1C(=O)c1cc2c(C(=O)C(=O)N(C)C)cn(C)c2cc1Cl [Talmapimod] (tested concentration range 1-10000 nM) | 0 | 0 | 0 | 1.9 | 0 | 0 | 0 | 0 | 0 | 0 | 0 |
| COc1cc(Nc2ncc(F)c(Nc3ccc4c(n3)NC(=O)C(C)(C)O4)n2)cc(OC)c1OC [Tamatinib] (tested concentration range 1-10000 nM) | 0.8 | 1.7 | 5.8 | 0.8 | 8 | 6 | 10.9 | 9.7 | 3.2 | 0 | 6.4 |
| CC/C(=C(\c1ccccc1)c1ccc(OCCN(C)C)cc1)c1ccccc1 [Tamoxifen] (tested concentration range 1-10000 nM) | 2.6 | 2.5 | 1.1 | 4.1 | 0 | 5 | 0.1 | 1.3 | 1.9 | 3.7 | 2 |
| O[C@H]1CC[C@H](Nc2ncc3nc(Nc4c(F)cc(F)cc4F)n([C@H]4CCOC4)c3n2)CC1 [Tanzisertib] (tested concentration range 1-10000 nM) | 0.2 | 3.3 | 0 | 1.3 | 0 | 0 | 0 | 0 | 0 | 0 | 0 |
| COc1cccc2c1c(O)c(C(=O)N(C)c1ccc(C(F)(F)F)cc1)c(=O)n2C [Tasquinimod] (tested concentration range 1-10000 nM) | 4.4 | 0 | 0 | 0 | 0.4 | 0 | 0.3 | 3.5 | 5.8 | 0 | 3.4 |
| CCN(c1cc(-c2ccc(CN3CCOCC3)cc2)cc(C(=O)NCc2c(C)cc(C)[nH]c2=O)c1C)C1CCOCC1 [Tazemetostat] (tested concentration range 1-10000 nM) | 0.7 | 1.2 | 0.4 | 1.9 | 0 | 0 | 1 | 1.8 | 0 | 0 | 0.9 |
| Cn1nnc2c(C(N)=O)ncn2c1=O [Temozolomide] (tested concentration range 10-100000 nM) | 0 | 0 | 0 | 0 | 0 | 0 | 0 | 0 | 0 | 0 | 0 |
| CO[C@H]1C[C@@H]2CC[C@@H](C)[C@@](O)(O2)C(=O)C(=O)N2CCCC[C@H]2C(=O)O[C@H]([C@H](C)C[C@@H]2CC[C@@H](OC(=O)C(C)(CO)CO)[C@H](OC)C2)CC(=O)[C@H](C)/C=C(\C)[C@@H](O)[C@@H](OC)C(=O)[C@H](C)C[C@H](C)/C=C/C=C/C=C/1C [Temsirolimus] (tested concentration range 0-100 nM) | 5.5 | 4 | 9.9 | 11 | 9.8 | 6.6 | 10.6 | 10.1 | 6 | 16.7 | 11.8 |
| COc1cc([C@@H]2c3cc4c(cc3[C@@H](O[C@@H]3O[C@@H]5CO[C@@H](c6cccs6)O[C@H]5[C@H](O)[C@H]3O)[C@H]3COC(=O)[C@H]23)OCO4)cc(OC)c1O [Teniposide] (tested concentration range 1-10000 nM) | 0 | 0 | 0 | 0 | 0 | 0 | 0 | 0 | 0 | 0 | 0 |
| CN1CCC(COc2cnc(-c3cccc(Cn4nc(-c5cccc(C#N)c5)ccc4=O)c3)nc2)CC1 [Tepotinib] (tested concentration range 0.1-1000 nM) | 0 | 0 | 0.5 | 0 | 2.4 | 0.7 | 0 | 3.4 | 0 | 0 | 3 |
| O=C1CCC(N2C(=O)c3ccccc3C2=O)C(=O)N1 (stereo not given) [Thalidomide] (tested concentration range 1-10000 nM) | 0 | 0 | 0 | 0 | 0 | 0 | 0 | 0 | 0 | 0 | 0 |
| Nc1nc2[nH]cnc2c(=S)[nH]1 [Thioguanine] (tested concentration range 1-10000 nM) | 3.7 | 0.2 | 2.9 | 0.4 | 4.9 | 11.8 | 1.1 | 3.6 | 4.9 | 8.8 | 1.8 |
| O=c1sn(-c2cccc3ccccc23)c(=O)n1Cc1ccccc1 [Tideglusib] (tested concentration range 0.3-3000 nM) | 2.3 | 0 | 0 | 0 | 0 | 0 | 0 | 0.8 | 1.6 | 0 | 0 |
| Cn1cncc1[C@@](N)(c1ccc(Cl)cc1)c1ccc2c(c1)c(-c1cccc(Cl)c1)cc(=O)n2C [Tipifarnib] (tested concentration range 1-10000 nM) | 3.2 | 7.3 | 7 | 14.8 | 4.6 | 9.8 | 2.1 | 7.6 | 1.4 | 13.8 | 4.8 |
| COc1cc2nccc(Oc3ccc(NC(=O)Nc4cc(C)on4)c(Cl)c3)c2cc1OC [Tivozanib] (tested concentration range 1-10000 nM) | 4.2 | 6 | 4.6 | 4.8 | 3 | 4.6 | 6.2 | 7.7 | 6 | 1.6 | 6.9 |
| C[C@@H]1CCN(C(=O)CC#N)C[C@@H]1N(C)c1ncnc2[nH]ccc12 [Tofacitinib] (tested concentration range 0.5-5000 nM) | 0 | 1.6 | 0 | 0 | 0 | 0 | 1.3 | 1 | 0.1 | 0 | 0.4 |
| CC[C@@]1(O)C(=O)OCc2c1cc1n(c2=O)Cc2cc3c(CN(C)C)c(O)ccc3nc2-1 [Topotecan] (tested concentration range 1-10000 nM) | 4.8 | 4.8 | 8.1 | 22.7 | 8.7 | 14.6 | 8.9 | 10.3 | 5.3 | 24.5 | 6.9 |
| CC(C)C[C@@H](C(=O)N[C@H](C(=O)OC1CCCC1)c1ccccc1)[C@H](O)C(=O)NO [Tosedostat] (tested concentration range 1-10000 nM) | 2.7 | 1 | 0 | 8.6 | 1.2 | 9.3 | 0 | 0.6 | 5.1 | 4.4 | 3.5 |
| Cc1cc(Nc2cc(N3CCN(C)CC3)nc(Sc3ccc(NC(=O)C4CC4)cc3)n2)n[nH]1 [Tozasertib] (tested concentration range 1-10000 nM) | 3 | 4.9 | 3.2 | 7 | 8.2 | 14.5 | 3.2 | 8.4 | 4.7 | 5.5 | 3.5 |
| CC(=O)Nc1cccc(-n2c(=O)n(C3CC3)c(=O)c3c(Nc4ccc(I)cc4F)n(C)c(=O)c(C)c32)c1 [Trametinib] (tested concentration range 0-250 nM) | 1.7 | 0 | 1.3 | 0 | 1.8 | 5.5 | 3 | 5.5 | 4.2 | 11.8 | 2.7 |
